Measurements as given in patent US10544130B2, “Metallo-beta-lactamase inhibitors” (priority 2015, dated 2020).

Columns and labels:
[1] = test system: Escherichia coli expressing NDM-1 (CLB30005, CLB30016); format: cell-based; settings: with imipenem 1 μg/ml; 95% inhibition of bacterial growth
Method in brief: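 Clinical strains were grown overnight at 35 °C on blood agar, adjusted to set OD600 in saline and diluted 1:100 into 1.1× CAMHB. Inhibitor was tested with and without imipenem at 1 μg/ml. After 22–24 h at 35 °C, absorbance was read to give synergistic concentration.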

[2] = test system: Pseudomonas aeruginosa PAO1 MB9798 (efflux+, IMP-1); settings: ratio MITC95 PA 9798/MITC95 PA 9799; imipenem at 2 μg/mL
Method in brief: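 Isogenic PAO1 pair (efflux+ MB9798, efflux− MB9799, both IMP-1) tested by microbroth MIC with fixed imipenem and/or ceftazidime, usually at CLSI breakpoint, plus fixed class A/C inhibitor against AmpC. MBL inhibitor titrated; concentration restoring susceptibility recorded and fold difference between strains taken as efflux extent.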

Structure (SMILES) | Escherichia coli (NDM-1) MITC95 [1] [µM] | Efflux ratio [2]
CC[C@@H](CN)NS(=O)(=O)c1ccc(-c2cccc3[nH]c(N)nc23)c(-c2nn[nH]n2)c1S(N)(=O)=O [Example 264, (S)-4-(2-amino-1H-benzo[d]imidazol-4-yl)-N1-(1-aminobutan-2-yl)-3-(2H-tetrazol-5-yl)benzene-1,2-disulfonamide] | 0.7813 | 4.00
Nc1nc2c(-c3ccc(S(=O)(=O)NC4CCNCC4)c(S(N)(=O)=O)c3-c3nn[nH]n3)cccc2[nH]1 [Example 260, 4-(2-amino-1H-benzo[d]imidazol-4-yl)-N1-(piperidin-4-yl)-3-(1H-tetrazol-5-yl)benzene-1,2-disuffonamide] | 0.7813 | 1.00
Nc1cccc(-c2ccc(S(=O)(=O)N[C@@H]3CCNC3)c(S(N)(=O)=O)c2-c2nn[nH]n2)n1 [Example 277, (R)-4-(6-aminopyridin-2-yl)-N1-(pyrrolidin-3-yl)-3-(2H-tetrazol-5-yl)benzene-1,2-disulfonamide] | 0.7813 | 1.00
C[C@@H](N)c1nc2c(-c3ccc(S(=O)(=O)N[C@@H]4CCNC4)c(S(N)(=O)=O)c3-c3nn[nH]n3)cccc2[nH]1 [Example 273, 4-(2-((R)-1-aminoethyl)-1H-benzo[d]imidazol-4-yl)-N1-((R)-pyrrolidin-3-yl)-3-(2H-tetrazol-5-yl)benzene-1,2-disulfonamide] | 1.563 | 1.00
NCc1nc2cc(-c3ccc(S(=O)(=O)N[C@@H]4CCNC4)c(S(N)(=O)=O)c3-c3nn[nH]n3)ccc2[nH]1 [Example 274, (R)-4-(2-(aminomethyl)-1H-benzo[d]imidazol-5-yl)-N1-(pyrrolidin-3-yl)-3-(2H-tetrazol-5-yl)benzene-1,2-disulfonamide] | 0.7813 | 1.00
NCCN1CC[C@H](NS(=O)(=O)c2ccc(-c3cccc4[nH]c(N)nc34)c(-c3nn[nH]n3)c2S(N)(=O)=O)C1 [Example 268, (S)-4-(2-amino-1H-benzo[d]imidazol-4-yl)-N1-(1-(2-aminoethyl)pyrrolidin-3-yl)-3-(2H-tetrazol-5-yl)benzene-1,2-disulfonamide] | 0.7813 | 1.00
NCC(=O)NC1CCC[C@@H](c2ccc(S(=O)(=O)N[C@@H]3CCNC3)c(S(N)(=O)=O)c2-c2nn[nH]n2)C1 (stereo partly drawn) [Example 270, 2-Amino-N-((3R)-3-(4-(N—((R)-pyrrolidin-3-yl)sulfamoyl)-3-sulfamoyl-2-(2H-tetrazol-5-yl)phenyl)cyclohexyl)acetamide] | 1.563 | 1.00
NC(=O)c1nc2c(-c3ccc(S(=O)(=O)N[C@H]4CCNC4)c(S(N)(=O)=O)c3-c3nn[nH]n3)cccc2[nH]1 [Example 292, (S)-4-(4-(N-(pyrrolidin-3-yl)sulfamoyl)-3-sulfamoyl-2-(2H-tetrazol-5-yl)phenyl)-1H-benzo[d]imidazole-2-carboxamide] | 1.563 | 0.50
NC[C@@H](CO)NS(=O)(=O)c1ccc(-c2cccc3[nH]c(N)nc23)c(-c2nnn[nH]2)c1S(N)(=O)=O [Example 426, (S)-4-(2-Amino-1H-benzo[d]imidazol-4-yl)-N^1-(1-amino-3-hydroxypropan-2-yl)-3-(1H-tetrazol-5-yl)benzene-1,2-disulfonamide] | 0.3906 | –
Nc1nc2c(-c3ccc(S(=O)(=O)NC[C@H]4CNCCN4)c(S(N)(=O)=O)c3-c3nn[nH]n3)cccc2[nH]1 [Example 314, (R)-4-(2-amino-1H-benzo[d]imidazol-4-yl)-N1-(piperazin-2-ylmethyl)-3-(2H-tetrazol-5-yl)benzene-1,2-disulfonamide] | 0.7813 | 1.00
Nc1nc2c(-c3ccc(S(=O)(=O)NC[C@@]4(N)CCNC4)c(S(N)(=O)=O)c3-c3nn[nH]n3)cccc2s1 [Example 367, (R)-4-(2-aminobenzo[d]thiazol-4-yl)-N1-((3-aminopyrrolidin-3-yl)methyl)-3-(2H-tetrazol-5-yl)benzene-1,2-disulfonamide] | 1.563 | 0.50
NCCNS(=O)(=O)c1ccc(-c2cccc3[nH]c([C@@H]4C[C@@H](O)CN4)nc23)c(-c2nn[nH]n2)c1S(N)(=O)=O [Example 444, N1-(2-aminoethyl)-4-(2-((2S,4R)-4-hydroxypyrrolidin-2-yl)-1H-benzo[d]imidazol-4-yl)-3-(2H-tetrazol-5-yl)benzene-1,2-disulfonamide] | 1.563 | –
NS(=O)(=O)c1c(S(=O)(=O)N[C@@H]2CCNC2)ccc(-c2cccn3ccnc23)c1-c1nn[nH]n1 [Example 291, (R)-4-(imidazo[1,2-a]pyridin-8-yl)-N1-(pyrrolidin-3-yl)-3-(2H-tetrazol-5-yl)benzene-1,2-disulfonamide] | 0.7813 | 1.00
C[C@@H](CCN)NS(=O)(=O)c1ccc(-c2cccc3[nH]c(N)nc23)c(-c2nn[nH]n2)c1S(N)(=O)=O [Example 267, (S)-4-(2-amino-1H-benzo[d]imidazol-4-yl)-N1-(4-aminobutan-2-yl)-3-(2H-tetrazol-5-yl)benzene-1,2-disulfonamide] | 0.7813 | 1.00
NCCNS(=O)(=O)c1ccc(-c2cccc3[nH]c(C4CNC4)nc23)c(-c2nn[nH]n2)c1S(N)(=O)=O [Example 443, N1-(2-aminoethyl)-4-(2-(azetidin-3-yl)-1H-benzo[d]imidazol-4-yl)-3-(2H-tetrazol-5-yl)benzene-1,2-disulfonamide] | 0.7813 | –
NCc1nc2cc(-c3ccc(S(=O)(=O)N[C@@H](CN)CO)c(S(N)(=O)=O)c3-c3nn[nH]n3)ccc2s1 [Example 475, (S)-N1-(1-amino-3-hydroxypropan-2-yl)-4-(2-(aminomethyl)benzo[d]thiazol-5-yl)-3-(2H-tetrazol-5-yl)benzene-1,2-disulfonamide] | 0.7813 | –
C[C@H](CN)NS(=O)(=O)c1ccc(-c2cccn3ccnc23)c(-c2nn[nH]n2)c1S(N)(=O)=O [Example 384, (R)—N1-(1-aminopropan-2-yl)-4-(imidazo[1,2-a]pyridin-8-yl)-3-(2H-tetrazol-5-yl)benzene-1,2-disulfonamide] | 1.563 | 0.50
NCC(CN)NS(=O)(=O)c1ccc(-c2ccnc(-c3cnc(N)[nH]3)c2)c(-c2nnn[nH]2)c1S(N)(=O)=O [Example 437, 4-(2-(2-Amino-1H-imidazol-5-yl)pyridin-4-yl)-N^1-(1,3-diaminopropan-2-yl)-3-(1H-tetrazol-5-yl)benzene-1,2-disulfonamide] | 0.7813 | –
N[C@H](CO)c1nc2c(-c3ccc(S(=O)(=O)N[C@H]4CNC[C@H]4N)c(S(N)(=O)=O)c3-c3nn[nH]n3)cccc2[nH]1 [Example 323, 4-(2-((S)-1-amino-2-hydroxyethyl)-1H-benzo[d]imidazol-4-yl)-N1-((3S,4R)-4-aminopyrrolidin-3-yl)-3-(2H-tetrazol-5-yl)benzene-1,2-disulfonamide] | 1.563 | 1.00
NCc1nc2c(-c3ccc(S(=O)(=O)NC[C@H](O)CN)c(S(N)(=O)=O)c3-c3nn[nH]n3)cccc2[nH]1 [Example 299, (R)—N1-(3-amino-2-hydroxypropyl)-4-(2-(aminomethyl)-1H-benzo[d]imidazol-4-yl)-3-(2H-tetrazol-5-yl)benzene-1,2-disulfonamide] | 0.7813 | 1.00
NCCNc1cc(-c2ccc(S(=O)(=O)N[C@@H]3CCNC3)c(S(N)(=O)=O)c2-c2nn[nH]n2)ccn1 [Example 458, (R)-4-(2-((2-aminoethyl)amino)pyridin-4-yl)-N1-(pyrrolidin-3-yl)-3-(2H-tetrazol-5-yl)benzene-1,2-disulfonamide] | 0.7813 | –
C[C@H](CN)NS(=O)(=O)c1ccc(-c2cccc3[nH]c(CN)nc23)c(-c2nn[nH]n2)c1S(N)(=O)=O [Example 383, (R)-4-(2-(aminomethyl)-1H-benzo[d]imidazol-4-yl)-N1-(1-aminopropan-2-yl)-3-(2H-tetrazol-5-yl)benzene-1,2-disulfonamide] | 0.7813 | 1.00
NCCNS(=O)(=O)c1ccc(-c2cccc3[nH]c([C@@H](N)CO)nc23)c(-c2nn[nH]n2)c1S(N)(=O)=O [Example 331, (R)-4-(2-(1-amino-2-hydroxyethyl)-1H-benzo[d]imidazol-4-yl)-N1-(2-aminoethyl)-3-(2H-tetrazol-5-yl)benzene-1,2-disulfonamide] | 1.563 | 1.00
NCCNc1cc(-c2ccc(S(=O)(=O)NCCO)c(S(N)(=O)=O)c2-c2nn[nH]n2)ccn1 [Example 457, 4-(2-((2-aminoethyl)amino)pyridin-4-yl)-N1-(2-hydroxyethyl)-3-(2H-tetrazol-5-yl)benzene-1,2-disulfonamide] | 1.563 | –
NCc1nc2c(-c3ccc(S(=O)(=O)N[C@@H]4CCNC4)c(S(N)(=O)=O)c3-c3nn[nH]n3)cccc2[nH]1 [Example 283, (R)-4-(2-(aminomethyl)-1H-benzo[d]imidazol-4-yl)-N1-(pyrrolidin-3-yl)-3-(2H-tetrazol-5-yl)benzene-1,2-disulfonamide] | 0.7813 | 1.00
